Drawing on US20250032625A1, “HETEROBIFUNCTIONAL MOLECULES AS TEAD INHIBITORS” (Merck Patent GmbH, priority 2021, published 2025), this text covers DC50 for one molecule.

Each structure is given as a SMILES string. Read-outs that look alike come from different tables or passages of the source.

Type in all cases: cell-based
The target in one assay is TEAD1 in NCI-H226 cells (Homo sapiens (Human), UniProt P28347). The assay can be described thus: TEAD degradation in NCI-H226 cell line (immunofluorescence). The gist of the method: (§1)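 SK-HEP1 and NCI-H226 cells were treated in duplicate for 16 or 24 h at 37 °C with compound (10 points, 1:3, top 30 µM final). After fixation, TEAD1 was immunostained with anti-TEF1 and per-cell fluorescence quantified by high-content imaging. DC50 from curve fitting.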

Another assay concerns the target TEAD1 (Homo sapiens (Human), UniProt P28347). Nature of the assay: TEAD degradation assay, 6 h time point, cell line not stated. As to conditions: after 6 h, read-out: degradation concentration, DC50, after 6 h. The protocol:
Degradation of TEAD isoform TEAD1 by exemplary compounds which has been determined at different time points in two different cell lines, SK-HEP1 and NCI-H226: For the assay, SK-HEP1 (ATCC HTB-52) and NCI-H226 (ATCC CRL-5826) cells were treated in duplicates with the test compounds in a 10-point dose, 1:3 dilution steps, with the top concentration starting at 30 uM (final concentration in assay). […] The primary antibody used was Anti-TEF1 (BD, 610293) and the secondary antibody used was Alexa Fluor® 488 Goat Anti-Mouse IgG (H+L) (Molecular Probes, A-11001). Finally, the cell nuclei were co-stained by Hoechst 33258 (Invitrogen, H-3569) and imaged using a high content imager. The amount of TEAD degradation was determined by quantifying the fluorescence intensity levels of Anti-TEF1 in each individual cell per well. DC50 was calculated using curve fitting software Genedata Screener. Cell media: The SK-HEP1 cells were cultured in the following media: MEM, +10% FCS, +1× GlutaMAX, +100 μM NEAA, +10 mM HEPES, +0.5% Pen/Strep. The NCI-H226 cells were cultured in the following media: RPMI 1640, +10% FBS, +1× GlutaMAX, +10 mM HEPES, +0.5% Pen/Strep.

A further assay has as its target TEAD1 in SK-HEP1 cells (Homo sapiens (Human), UniProt P28347). Nature of the assay: TEAD degradation in SK-HEP1 cell line (immunofluorescence). A digest of the protocol: as §1

TEAD1 in NCI-H226 cells, sequence (P28347 whole entry): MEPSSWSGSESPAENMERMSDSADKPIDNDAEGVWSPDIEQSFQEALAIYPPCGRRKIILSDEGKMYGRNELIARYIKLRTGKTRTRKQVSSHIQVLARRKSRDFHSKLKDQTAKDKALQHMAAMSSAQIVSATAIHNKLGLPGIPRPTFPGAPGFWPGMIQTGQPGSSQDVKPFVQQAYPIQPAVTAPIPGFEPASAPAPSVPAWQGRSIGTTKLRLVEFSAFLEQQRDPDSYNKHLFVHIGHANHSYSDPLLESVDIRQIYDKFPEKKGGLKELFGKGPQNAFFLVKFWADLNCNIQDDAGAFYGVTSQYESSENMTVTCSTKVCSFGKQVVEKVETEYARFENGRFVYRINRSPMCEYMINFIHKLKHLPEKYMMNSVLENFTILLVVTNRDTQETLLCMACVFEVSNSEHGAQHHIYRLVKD
TEAD1 in SK-HEP1 cells, sequence (P28347 whole entry): as above
TEAD1, sequence (P28347 whole entry, canonical isoform): as the sequence (P28347 whole entry) above

As to `Cc1ncsc1-c1ccc([C@H](C)NC(=O)[C@@H]2C[C@@H](O)CN2C(=O)[C@@H](NC(=O)CCCCCc2cn(CCCCCCCNC(=O)c3ccc4c(c3)c3cn(C)nc3n4-c3ccc(C(F)(F)F)cc3)nn2)C(C)(C)C)cc1` [Compound 29, (2S,4R)-1-[(2S)-3,3-dimethyl-2-(6-{1-[7-({2-methyl-8-[4-(trifluoromethyl)phenyl]-2H,8H-pyrazolo[3,4-b]indol-5-yl}formamido)heptyl]-1H-1,2,3-triazol-4-yl}hexanamido)butanoyl]-4-hydroxy-N-[(1S)-1-[4-(4-methyl-1,3-thiazol-5-yl)phenyl]ethyl]pyrrolidine-2-carboxamide], the DC50 was 200 nM at TEAD1 in NCI-H226 cells (16 h incubation, read-out: DC50 NCI-H226 16 h); 300 nM at TEAD1 in NCI-H226 cells (24 h incubation, read-out: DC50 NCI-H226 24 h); 100 to 1000 nM on TEAD1 in NCI-H226 cells (24 hours, ranges, read-out: DC50 NCI-H226); 280 nM on TEAD1; 220 nM at TEAD1 in SK-HEP1 cells (16 h incubation, read-out: DC50 SK-HEP1 16 h); 280 nM at TEAD1 in SK-HEP1 cells (24 h incubation, read-out: DC50 SK-HEP1 24 h). Moreover, the DC50 on TEAD1 in SK-HEP1 cells (24 hours, ranges, read-out: DC50 SK-HEP1) was 100 to 1000 nM.
